In brackets after ≈: the same amount, converted by molar mass. Several values for one entry are separate records, joined by “and”; a condition that tells them apart may be missing. Identical values can stand only once.
How the values were obtained:
Assay in all cases: ≥ marks a high value that may be exact or a test limit, other limits are often not marked, values filed in µg/mL are converted to µM
[1] = tested on: Acinetobacter baumannii
[2] = tested on: Candida albicans ATCC 90028
[3] = tested on: Escherichia coli ATCC 25726
[4] = tested on: Klebsiella pneumoniae ATCC 700603
[5] = tested on: Proteus mirabilis ATCC 25933
[6] = tested on: Pseudomonas aeruginosa ATCC 27853
[7] = tested on: Staphylococcus aureus ATCC 25923
[8] = tested on: Staphylococcus aureus ATCC 29213
[9] = tested on: Staphylococcus epidermidis RP62A/1
[10] = tested on: Staphylococcus epidermidis RP62A
[11] = tested on: Stenotrophomonas maltophilia
[12] = tested on: Acinetobacter baumannii NM75
[13] = tested on: Acinetobacter baumannii NM8
[14] = tested on: Aggregatibacter actinomycetemcomitans ATCC 29522
[15] = tested on: Batrachochytrium dendrobatidis
[16] = tested on: Enterobacter cloacae NHTCC 53001
[17] = tested on: Klebsiella pneumoniae KK3 9904
[18] = tested on: Staphylococcus aureus ATCC 33591
[19] = tested on: Staphylococcus aureus ATCC 700699
[20] = tested on: Bacillus subtilis ATCC 9372
[21] = tested on: Escherichia coli ATCC 8739
[22] = tested on: Proteus vulgaris NCTC 4635
[23] = tested on: Pseudomonas aeruginosa ATCC 9027
[24] = tested on: Staphylococcus aureus ATCC 6538
[25] = tested on: Aeromonas hydrophila BCRC 13018
[26] = tested on: Enterococcus faecalis BCRC 10066
[27] = tested on: Helicobacter pylori ATCC 43504
[28] = tested on: Helicobacter pylori ATCC 43629
[29] = tested on: Helicobacter pylori ATCC 700392
[30] = tested on: Helicobacter pylori
[31] = tested on: Pseudomonas aeruginosa ATCC 19660
[32] = tested on: Streptococcus agalactiae 819
[33] = tested on: Streptococcus agalactiae BCRC 10787
[34] = tested on: Vibrio alginolyticus
[35] = tested on: Vibrio vulnificus 204
[36] = tested on: Bacillus magaterium AB90008
[37] = tested on: Bacillus thuringiensis AB93100
[38] = tested on: Candida tropicalis AY91009
[39] = tested on: Enterobacter cloacae subsp. cloacae AB2010162
[40] = tested on: Escherichia coli DH5alpha
[41] = tested on: Escherichia coli JM109
[42] = tested on: Klebsiella oxytoca AB2010143
[43] = tested on: Pseudomonas fluorescens
[44] = tested on: Pseudomonas putida
[45] = tested on: Salmonella enterica AB2010185
[46] = tested on: Staphylococcus aureus AB94004

Q: For `CC[C@H](C)[C@H](N)C(=O)N[C@@H](CCCCN)C(=O)N[C@@H](CC(C)C)C(=O)N[C@@H](CO)C(=O)N1CCC[C@H]1C(=O)N[C@@H](CCCCN)C(=O)N[C@H](C(=O)N[C@@H](CCCCN)C(=O)N[C@@H](CC(=O)O)C(=O)N[C@@H](CC(N)=O)C(=O)N[C@@H](CC(C)C)C(=O)N[C@@H](CCCCN)C(=O)N[C@@H](CCCCN)C(=O)N[C@H](C(=O)N[C@@H](CC(C)C)C(=O)N[C@@H](CCCCN)C(=O)NCC(=O)N[C@@H](C)C(=O)N[C@H](C(=O)N[C@@H](CCCCN)C(=O)NCC(=O)N[C@@H](C)C(=O)N[C@H](C(=O)N[C@@H](C)C(=O)N[C@H](C(=O)N[C@@H](C)C(=O)N[C@@H](CCCCN)C(=O)N[C@@H](CCSC)C(=O)N[C@H](C(N)=O)C(C)C)C(C)C)[C@@H](C)CC)[C@@H](C)CC)C(C)C)[C@@H](C)O` [IKLSPKTKDNLKKVLKGAIKGAIAVAKMV], which MIC [1] is on record?
A: Its MIC is 6.25 µM (≈ 19.1 µg/mL).

Q: What about the MIC [2] of the same compound?
A: Its MIC is at least 100 µM.

Q: And the MIC [3]?
A: Its MIC is 6.25 µM (≈ 19.1 µg/mL).

Q: And the MIC [4]?
A: Its MIC is 6.25 µM (≈ 19.1 µg/mL).

Q: And the MIC [5]?
A: Its MIC is at least 100 µM.

Q: What about the MIC [6] of the same compound?
A: Its MIC is 12.5 µM (≈ 38.3 µg/mL).

Q: What about the MIC [7] of the same compound?
A: The MIC was 1.6 µM (≈ 4.9 µg/mL).

Q: And the MIC [8]?
A: Its MIC is 3.1 µM (≈ 9.49 µg/mL).

Q: And the MIC [9]?
A: Its MIC is 0.8 µM (≈ 2.45 µg/mL).

Q: And the MIC [10]?
A: The MIC was 0.8 µM (≈ 2.45 µg/mL).

Q: And the MIC [11]?
A: Its MIC is 1.6 µM (≈ 4.9 µg/mL).

Q: Which MIC [12] does the source give for `CC[C@H](C)[C@H](NC(=O)CNC(=O)[C@H](CCCCN)NC(=O)[C@@H](NC(=O)[C@H](CC(C)C)NC(=O)[C@H](CO)NC(=O)CNC(=O)[C@H](CC(C)C)NC(=O)CNC(=O)[C@H](C)NC(=O)[C@H](CCCCN)NC(=O)[C@H](Cc1ccccc1)NC(=O)[C@@H](NC(=O)[C@H](CCCCN)NC(=O)[C@H](CCCCN)NC(=O)[C@H](CC(C)C)NC(=O)CN)[C@@H](C)CC)C(C)C)C(=O)N[C@@H](CCCCN)C(=O)N[C@@H](C)C(=O)N[C@@H](Cc1cnc[nH]1)C(=O)N[C@H](C(=O)N[C@@H](C)C(=O)N[C@@H](CO)C(N)=O)C(C)C` [GLKKIFKAGLGSLVKGIKAHVAS] here?
A: Its MIC is 2.5 µM (≈ 5.8 µg/mL).

Q: What about the MIC [13] of the same compound?
A: The MIC was 5 µM (≈ 11.6 µg/mL).

Q: What about the MIC [2] of the same compound?
A: The MIC was 20 µM (≈ 46.4 µg/mL).

Q: What about the MIC [3] of the same compound?
A: The MIC was 10 µM (≈ 23.2 µg/mL).

Q: What about the MIC [7] of the same compound?
A: The MIC was over 250 µM.

Q: Which results are given for `CC[C@H](C)[C@H](NC(=O)[C@H](CC(=O)O)NC(=O)[C@H](CCCCN)NC(=O)[C@H](C)NC(=O)[C@H](C)NC(=O)CNC(=O)[C@H](CCCCN)NC(=O)[C@H](CC(C)C)NC(=O)[C@@H](NC(=O)[C@H](CC(=O)O)NC(=O)[C@@H](NC(=O)[C@@H](NC(=O)CN)C(C)C)C(C)C)[C@@H](C)CC)C(=O)N[C@@H](C)C(=O)NCC(=O)N[C@@H](Cc1cnc[nH]1)C(=O)N[C@@H](CC(C)C)C(=O)N[C@@H](C)C(=O)N[C@@H](CO)C(=O)N[C@@H](CCCCN)C(=O)N[C@H](C(=O)N[C@@H](CCSC)C(=O)N[C@@H](CC(N)=O)C(=O)N[C@@H](CCCCN)C(=O)N[C@@H](CC(C)C)C(N)=O)C(C)C` [GVVDILKGAAKDIAGHLASKVMNKL]?
A: MIC [14]: 24.8 µM (≈ 63.3 µg/mL); MIC [15]: ≥ 100 µM; MIC [16]: 20 µM (≈ 51 µg/mL); MIC [4]: 100 µM (≈ 255 µg/mL); MIC [17]: ≥ 80 µM; MIC [5]: ≥ 160 µM; MIC [6]: 80 µM and 100 µM; MIC [7]: 110 µM (≈ 280 µg/mL); MIC [8]: > 100 µM; MIC [18]: ≥ 100 µM; MIC [19]: ≥ 100 µM

Q: Which MIC [20] does the source give for `CC[C@H](C)[C@H](NC(=O)[C@@H](NC(=O)[C@@H](NC(=O)[C@H](CC(=O)O)NC(=O)[C@H](Cc1ccccc1)NC(=O)[C@H](CC(C)C)NC(=O)CN)C(C)C)C(C)C)C(=O)NCC(=O)NCC(=O)N[C@@H](CC(C)C)C(=O)O` [GLFDVVIGGL] here?
A: The MIC was at least 1040 µM.

Q: What about the MIC [21] of the same compound?
A: Its MIC is at least 1040 µM.

Q: And the MIC [22]?
A: Its MIC is at least 1040 µM.

Q: What about the MIC [23] of the same compound?
A: The MIC was over 1040 µM.

Q: What about the MIC [24] of the same compound?
A: The MIC was over 1040 µM.

Q: `CC(C)C[C@H](NC(=O)[C@@H](NC(=O)[C@H](CO)NC(=O)[C@H](CC(=O)O)NC(=O)[C@H](Cc1c[nH]c2ccccc12)NC(=O)[C@H](CC(=O)O)NC(=O)[C@@H](N)Cc1ccccc1)C(C)C)C(=O)N[C@@H](CCCCN)C(=O)NCC(=O)N[C@H](C(=O)N[C@@H](CCC(=O)O)C(=O)NCC(=O)N[C@@H](Cc1ccccc1)C(=O)N[C@H](C(=O)N[C@@H](CCCN=C(N)N)C(=O)NCC(=O)N[C@@H](Cc1ccc(O)cc1)C(=O)N[C@@H](Cc1ccccc1)C(N)=O)C(C)C)C(C)C` [FDWDSVLKGVEGFVRGYF] was tested. Which MIC [25] did it give?
A: Its MIC is 11.1 µM (≈ 23.6 µg/mL).

Q: And the MIC [26]?
A: The MIC was 11.1 µM (≈ 23.6 µg/mL).

Q: And the MIC [27]?
A: The MIC was 5.66 µM (≈ 12 µg/mL).

Q: And the MIC [28]?
A: Its MIC is 5.66 µM (≈ 12 µg/mL).

Q: And the MIC [29]?
A: Its MIC is 5.66 µM (≈ 12 µg/mL).

Q: And the MIC [30]?
A: The MIC was 5.66 µM (≈ 12 µg/mL).

Q: And the MIC [31]?
A: Its MIC is 11.1 µM (≈ 23.6 µg/mL).

Q: What about the MIC [32] of the same compound?
A: The MIC was 11.1 µM (≈ 23.6 µg/mL).

Q: What about the MIC [33] of the same compound?
A: The MIC was 11.1 µM (≈ 23.6 µg/mL).

Q: And the MIC [34]?
A: Its MIC is 11.1 µM (≈ 23.6 µg/mL).

Q: And the MIC [35]?
A: Its MIC is 11.1 µM (≈ 23.6 µg/mL).

Q: Which MIC [36] does the source give for `CC[C@H](C)[C@H](NC(=O)[C@H](CC(C)C)NC(=O)[C@H](CCCN=C(N)N)NC(=O)[C@H](CCCCN)NC(=O)[C@@H](NC(=O)[C@@H](NC(=O)CNC(=O)[C@H](CC(C)C)NC(=O)[C@H](CC(C)C)NC(=O)[C@H](CCCN=C(N)N)NC(=O)CNC(=O)[C@H](CO)NC(=O)[C@H](CCC(=O)O)NC(=O)[C@H](CCCN=C(N)N)NC(=O)[C@H](CCC(=O)O)NC(=O)[C@H](CCCCN)NC(=O)[C@H](CCC(=O)O)NC(=O)[C@H](CO)NC(=O)[C@@H](NC(=O)CNC(=O)[C@@H](N)CO)[C@@H](C)O)C(C)C)C(C)C)C(=O)N[C@H](C(=O)N[C@@H](CS)C(=O)N[C@@H](Cc1ccccc1)C(=O)N[C@@H](CCCN=C(N)N)C(=O)N[C@@H](CO)C(=O)N1CCC[C@H]1C(=O)N[C@@H](Cc1ccccc1)C(=O)N1CCC[C@H]1C(N)=O)C(C)C` [SGTSEKERESGRLLGVVKRLIVCFRSPFP] here?
A: The MIC was 11.8 µM (≈ 38.3 µg/mL).

Q: What about the MIC [37] of the same compound?
A: The MIC was at least 46.5 µM.

Q: What about the MIC [38] of the same compound?
A: The MIC was at least 48.6 µM.

Q: What about the MIC [39] of the same compound?
A: The MIC was at least 47.9 µM.

Q: And the MIC [40]?
A: Its MIC is at least 51.2 µM.

Q: And the MIC [41]?
A: The MIC was at least 50.4 µM.

Q: And the MIC [42]?
A: The MIC was at least 50.5 µM.

Q: And the MIC [43]?
A: The MIC was 23.8 µM (≈ 77.3 µg/mL).

Q: What about the MIC [44] of the same compound?
A: Its MIC is 24 µM (≈ 77.9 µg/mL).

Q: What about the MIC [45] of the same compound?
A: The MIC was 25 µM (≈ 81.2 µg/mL).

Q: What about the MIC [46] of the same compound?
A: Its MIC is 23.6 µM (≈ 76.6 µg/mL).

— DBAASP
